Reference: ChEMBL document CHEMBL1133028, “The synthesis and in vitro cytotoxic studies of novel oxa-spermidine derivatives and homologues” (2000)

Columns and labels:
Assay type in all cases: functional
OVCAR-5 = assay: Compound was evaluated for the growth inhibition of OVCAR-5 ovarian cell lines; conditions: Homo sapiens
IGROV-1 = assay: Compound was evaluated for the growth inhibition of […] ovarian cell lines; conditions: Homo sapiens
Tumor Cell line [1] = assay: Mean values over all human tumor cell lines were determined
[2] = system: Panel renal (Carcinoma cell lines); assay: Compound was evaluated for the growth inhibition of cell cultures derived from human renal cancer tumors
Homo sapiens [3] = species: Homo sapiens; assay: Compound was evaluated for the growth inhibition of cell cultures derived from human prostate cancer tumors
Melanoma tumor cell line = assay: Compound was evaluated for the growth inhibition of cell cultures derived from human melanoma tumors
leukaemia cell line = assay: Compound was evaluated for the growth inhibition of cell cultures derived from human leukemia tumors
[4] = system: Lung cancer tumor cell line; assay: Compound was evaluated for the growth inhibition of cell cultures derived from human non small cell lung cancer tumors
[5] = system: Panel colon (Carcinoma cell lines); assay: Compound was evaluated for the growth inhibition of cell cultures derived from human colon cancer tumors
[6] = system: Panel CNS (Carcinoma cell lines); assay: Compound was evaluated for the growth inhibition of cell cultures derived from human Cns cancer tumors
[7] = system: Panel breast (Carcinoma cell lines); assay: (§1) Compound was evaluated for the growth inhibition of cell cultures derived from human breast cancer tumors
Ovarian cancer cell line = assay: (§2) Compound was evaluated for the growth inhibition of cell cultures derived from human ovarian cancer tumors
Tumor Cell line [8] = assay: Compound was evaluated for the growth inhibition of a panel of human tumor cell lines
Homo sapiens [9] = species: Homo sapiens; assay: as §2
[10] = as §1
Tumor Cell line [11] = assay: Compound was evaluated for the growth inhibition against panel of human tumor cell lines

| Structure (SMILES) | GI50 (OVCAR-5) [µM] | GI50 (IGROV-1) [µM] | GI50 (Tumor Cell line [1]) [µM] | GI50 [2] [µM] | GI50 (Homo sapiens [3]) [µM] | GI50 (Melanoma tumor cell line) [µM] | GI50 (leukaemia cell line) [µM] | GI50 [4] [µM] | GI50 [5] [µM] | GI50 [6] [µM] | GI50 [7] [µM] | GI50 (Ovarian cancer cell line) [µM] | GI50 (Tumor Cell line [8]) [µM] | GI50 (Homo sapiens [9]) [µM] | GI50 [10] [µM] | GI50 (Tumor Cell line [11]) [µM] |
| --- | --- | --- | --- | --- | --- | --- | --- | --- | --- | --- | --- | --- | --- | --- | --- | --- |
| Cc1c(C)c(S(=O)(=O)N(CCCCCCN2C(=O)c3ccccc3C2=O)OCCCN2C(=O)c3ccccc3C2=O)c(C)c2c1OC(C)(C)CC2 | 52.5 | 3.27 |  |  |  |  |  |  |  |  |  |  |  |  |  |  |
| Cc1c(C)c(S(=O)(=O)N(CCCCCN2C(=O)c3ccccc3C2=O)OCCCN2C(=O)c3ccccc3C2=O)c(C)c2c1OC(C)(C)CC2 | 52.5 | 3.27 |  |  |  |  |  |  |  |  |  |  |  |  |  |  |
| Cc1c(C)c(S(=O)(=O)N(CCCCN2C(=O)c3ccccc3C2=O)OCCCN2C(=O)c3ccccc3C2=O)c(C)c2c1OC(C)(C)CC2 | 52.5 | 3.27 |  |  |  |  |  |  |  |  |  |  |  |  |  |  |
| Cc1c(C)c(S(=O)(=O)N(CCCN2C(=O)c3ccccc3C2=O)OCCCN2C(=O)c3ccccc3C2=O)c(C)c2c1OC(C)(C)CC2 | 52.5 | 3.27 |  |  |  |  |  |  |  |  |  |  |  |  |  |  |
| Cc1cc(C)c(S(=O)(=O)N(CCCCCN)OCCCN)c(C)c1 |  |  | 15.2 | 16.1 | 15.7 | 18.2 | 15.3 | 16.9 | 16.2 | 16.9 | 20.2 | 17.9 |  |  |  |  |
| Cc1cc(C)c(S(=O)(=O)N(CCCN)OCCCN)c(C)c1 |  |  |  |  |  |  |  |  |  |  |  |  | > 100 |  |  |  |
| Cc1cc(C)c(S(=O)(=O)N(CCCCCCN)OCCCN)c(C)c1 |  |  | 18.3 | 17.5 | 15.4 | 15.7 | 19.5 | 22.4 | 16.7 | 16.5 | 23 | 18 |  |  |  |  |
| Cc1cc(C)c(S(=O)(=O)N(CCCCN)OCCCN)c(C)c1 |  |  | 16.4 | 18.2 | 14.5 | 18.1 | 11.8 | 18.5 | 13.3 | 18.1 | 17.8 |  |  | 17.2 |  |  |
| Cc1c(C)c(S(=O)(=O)N(CCCCCON)OCCCN)c(C)c2c1OC(C)(C)CC2 |  |  | 12.5 | 14.3 | 10.6 | 13.7 | 6.3 | 13.5 | 12.8 | 14.9 |  |  |  | 12.4 | 13.8 |  |
| Cc1c(C)c(S(=O)(=O)N(CCCCCCN)OCCCN)c(C)c2c1OC(C)(C)CC2 |  |  | 8.5 | 11.3 | 16.3 | 10.7 | 4.1 | 6.3 | 7.2 | 5.6 | 10.2 | 4.7 |  |  |  |  |
| NCCCNOCCCN |  |  |  |  |  |  |  |  |  |  |  |  |  |  |  | > 100 |
| Cc1c(C)c(S(=O)(=O)N(CCCCN)OCCCN)c(C)c2c1OC(C)(C)CC2 |  |  | 19.6 | 20.9 | 14.5 | 19.1 | 26.8 | 15.3 | 20.3 | 18 | 28.4 | 13.5 |  |  |  |  |
| Cc1c(C)c(S(=O)(=O)N(CCCCCN)OCCCN)c(C)c2c1OC(C)(C)CC2 |  |  | 11.2 | 16.5 | 16.1 | 10.9 | 3.9 | 11.5 | 9.8 | 9.6 | 10 | 12.7 |  |  |  |  |
| Cc1c(C)c(S(=O)(=O)N(CCCN)OCCCN)c(C)c2c1OC(C)(C)CC2 |  |  | 14 | 14.7 | 14 | 14.8 | 13 | 14.2 | 13.8 | 12.9 | 15.8 | 12.6 |  |  |  |  |
